Measurements reported in patent US20040248909A1, “Adenosine a1 receptor antagonist for treating hypoxia-induced learning memory impairment” (priority 2001, published 2004).

What was measured:
[1] = test system: CA1 pyramidal cells; test: Carbachol-induced cholinergic CA1 θ field potential and intracellular θ in hippocampal slices, with or without brief hypoxia; type: cell-based, rat
Experimental: (§1) Brain slices and electrophysiology. Male Sprague-Dawley rats (150-200 gm) were anesthetized with pentobarbital and the brains were removed and cooled rapidly in aCSF solution, bubbled continuously with 95% O2 and 5% CO2. Hippocampi were sliced ([…]) and placed in oxygenated aCSF (NaCl, 124 mM; KCl 3; MgSO4 1.3; CaCl2 2.4; NaHCO3 26; NaH2PO4 1.25; and glucose 10). The CA1 pyramidal cells were recorded at 30-31° C. with sharp electrodes (tip resistance: 60-120 MΩ). Study was performed on CA1 neurons with stable resting membrane potential more negative than −70 mV. Unless otherwise mentioned, test stimuli were applied at frequency of 1 per minute (0.017 Hz). Signals were amplified with AxoClamo-2B amplifier, digitized and stored using DigiData 1200 with the P-Clamp data collection and analysis software (Axon Instruments, Inc.).
Hypoxia. Episodes of hypoxia were induced by replacing the oxygen supply with […] for 3 min or 95% N2/5% CO2 for 100 s. […] The hypoxia is milder than those used by others to produce an irreversible impairment of synaptic transmission^25.
Effects of brief hypoxia on functions of CA1 neurons were monitored on synaptic transmission, long-term potentiation (LTP) of glutamatergic EPSPs, and cholinergic θ, a memory-related neuronal activity synchronization that depends on a temporal heterosynaptic interaction. Bath application of carbachol (50 μM, 20 min), a cholinergic receptor agonist, to hippocampal slices mimicked septal activation and diffuse acetylcholine transmission and induced CA1 θ field potential (FIG. 1a; peak amplitude: 0.73±0.02 mV, n=10, p<0.05, at 7.4±0.7 Hz from background noise). The θ is sensitive to atropine blockade and lasted for more than 3h^7. The θ oscillation of membrane potential (7.5±1.0 mV; n=18; p<0.05) was also observed in CA1 pyramidal cells (intracellular θ; FIG. 1b). […] LTP of responses to schaffer collateral (Sch) glutamatergic inputs (FIG. 1c,e), however, was not reduced, but enhanced, by the hypoxia (FIG. 1d,e), consistent with reported hypoxic LTP^8 and the observation that LTP expression is not vulnerable to transient hypoxia a few minutes after hypoxia.

[2] = test system: CA1 pyramidal cells; test: Sch-CA1 synaptic transmission (EPSPs) in hippocampal slices during brief hypoxia (synaptic arrest); type: cell-based, rat
Experimental: as §1
(§2) Hypoxia. Episodes of hypoxia were induced by replacing the oxygen supply with 95% N2/5% O2/5% CO2 for 3 min or 95% N2/5% CO2 for 100 s. […]
(§3) The period of hypoxia is known to block synaptic transmission of glutarmatergic inputs^8, GABAergic input^8,10 and cholinergic inputs ^11,12, causing disconnection, or synaptic ‘arrest’, of CA1 neuronal network^8. […] Effects of brief hypoxia on synaptic transmission and of agents on hypoxic responses were monitored on responses of CA1 pyramidal cells to Sch activation. […]

[3] = test system: hypoxia rats; test: Hidden-platform water maze spatial learning and memory in rats subjected to brief hypoxia; type: in vivo, rat; conditions: bilateral i.c.v. 400 nmoles/site
Experimental: The figure illustrates experimental protocol (FIG. 4a), escape latency (means±SEM) in water maze training (FIG. 4b) across 12 trials (F11,312=50.14, p<0.0001), and quadrant preference (FIGS. 4c, 4d and 4e) conducted at the end of the twelfth training session, and swimming distance (in 1 min; FIG. 4f). Rats were either subjected to air or hypoxia (95% N2/5% CO2 for 100 s) about 30 min in a glass jar after the 2nd-or 4th trial of the day. Bilateral i.c.v. CPDPX (400 nmoles/site) or vehicle were administered before the 2nd and 4th trials of the day. Quadrant 4 is the target quadrant during training.
Spatial maze tasks. Male adult Wistar rats (200-250 gm) were anesthetized with sodium pentobarbital (60 mg/kg, i.p) and placed in a stereotactic apparatus (Kopf Instruments, Tujunga, Calif.). Two stainless steel guide cannulas were placed with the tips positioned at the coordinates (anterior-posterior, 0.5 mm; lateral, 1.5 mm; horizontal, 3.2 mm), under aseptic conditions. A 7-day recovery period was allowed before any further experimentation. All rats were randomly assigned to different groups (10 each) and swam for 2 min in a 1.5 m (diameter)×0.6 m (depth) pool (22±1° C.). […]
One of the most persistent consequences of transient hypoxia/ischemia is amnesia. Effects of brief hypoxia and CPDPX on spatial learning (FIG. 4a) were evaluated in rats, using a hidden-platform water maze. […]

[4] = biological target: T1, adenosine A1 receptor (Rattus norvegicus, UniProt P25099); conditions: cited from earlier work
T1 sequence (P25099 1-326): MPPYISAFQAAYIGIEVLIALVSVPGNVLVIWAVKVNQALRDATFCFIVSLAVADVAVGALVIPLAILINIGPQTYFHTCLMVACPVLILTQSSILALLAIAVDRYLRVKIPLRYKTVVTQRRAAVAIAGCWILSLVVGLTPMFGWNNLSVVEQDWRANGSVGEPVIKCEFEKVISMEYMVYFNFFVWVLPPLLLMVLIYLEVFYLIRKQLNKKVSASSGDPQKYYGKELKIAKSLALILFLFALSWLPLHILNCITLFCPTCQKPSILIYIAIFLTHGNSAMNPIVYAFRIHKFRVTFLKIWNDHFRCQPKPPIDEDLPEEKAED

[5] = test system: CA1 pyramidal cells; test: Membrane response of CA1 pyramidal cells to local application of glutamate; type: cell-based, rat; conditions: 20 μl of 10 mM
Experimental: as §1, §2, §3

C[N+](C)(C)CCOC(N)=O [carbachol]
frequency of induced CA1 θ field potential ([1]; bath application 50 μM, 20 min): 7.4±0.7 Hz | induced CA1 θ field potential peak amplitude ([1]; bath application 50 μM, 20 min, n=10): 0.73±0.02 mV | θ oscillation of membrane potential (intracellular θ) ([1]; carbachol 50 μM, CA1 pyramidal cells, n=18): 7.5±1.0 mV

CCCn1c(=O)c2[nH]c(C3CCCC3)nc2n(CCC)c1=O [CPDPX, 8-cyclopentyl-1,3-dipropylxanthine]
synaptic transmission at the end of the hypoxia versus control 100% ([2]; Sch-CA1 EPSPs, brief hypoxia 5% O2 3 min, 10 μM, n=7, p>0.05): 99.2±2.4% | effect on hypoxic synaptic arrest ([2]; end of 3 min hypoxia, citicoline 100 μM, 8-cyclopentyl-1,3-dipropylxanthine 10 μM): synaptic arrest was abolished | intracellular θ after brief hypoxia (versus pre-hypoxia) ([1]; in presence of CPDPX, CA1 pyramidal cells, n=8, p>0.05): 99.6±3.0% | θ activity after brief hypoxia (versus pre-hypoxia) ([1]; in presence of CPDPX, carbachol-induced CA1 θ, n=6, p>0.05): 100.2±3.2% | quadrant preference in quadrant test ([3]; 24 hrs after last training trial, F3,36=169.7, p<0.0001): showed a preference for the target quadrant | effect on hypoxic impairment of spatial memory (escape latency) ([3]; hypoxia 95% N2/5% CO2 100 s): eliminated hypoxic impairment on the spatial memory | effect on adenosine-mediation of anoxia induced synaptic glutamate release in CA1 pyramidal neurons ([4]; Katchman et al. 1996): not affected | effect on hypoxia-induced accumulation of adenosine ([4]; Pearson et al. 2000): mitigates hypoxia-induced accumulation of adenosine during hypoxia

N[C@@H](CCC(=O)O)C(=O)O [glutamate]
peak inward current, control value ([5]; local application before hypoxia): 206.8±9.7 pA | peak inward current ([5]; local application during last few seconds of 3 min hypoxia, n=7): 201.2±10.5 pA
